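Growth conditions: 96-well plates. Treatment: test compound, 48 hours, 5 concentrations. Analysis: linear interpolation between bracketing concentrations; unreached endpoints set to highest concentration. The concentration for 50% growth inhibition is given as GI50. TGI marks complete inhibition of growth.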
How the values were obtained:
Test in all cases: growth of human tumour cells (NCI), 48 h
[1] = system: UACC-62 melanoma
[2] = system: LOX IMVI melanoma
[3] = system: KM12 colon
[4] = system: UACC-257 melanoma
[5] = system: SF-295 CNS
[6] = system: MDA-MB-231 breast
[7] = system: A549 NSCLC
[8] = system: OVCAR-3 ovarian
[9] = system: SR leukemia
[10] = system: OVCAR-4 ovarian
[11] = system: IGROV1 ovarian
[12] = system: NCI-H460 lung
[13] = system: SK-MEL-5 melanoma
[14] = system: RPMI-8226 leukemia
[15] = system: SNB-75 CNS
[16] = system: DU-145 prostate
[17] = system: SNB-19 CNS
[18] = system: HL-60(TB) leukemia
[19] = system: HCC-2998 colon
[20] = system: U251 CNS
[21] = system: SN12C renal
[22] = system: BT-549 breast
[23] = system: OVCAR-8 ovarian
[24] = system: CAKI-1 renal
[25] = system: NCI/ADR-RES ovarian
[26] = system: HT29 colon
[27] = system: MDA-MB-435
[28] = system: NCI-H226 lung
[29] = system: SW-620 colon

With `COc1ccc(C2CC(c3ccc4ccccc4c3)=NN2c2nc(O)c(C3=c4cc(OC)ccc4=NC3=O)s2)cc1` (configuration not stated) the GI50 [1] was 121 nM, the TGI [1] was 368 nM and the GI50 [2] was 35.9 nM. It also gave a TGI [2] of 127 nM, a GI50 [3] of 85.6 nM and a TGI [3] of 286 nM. For the same compound, the GI50 [4] was 718 nM, the TGI [4] was 6140 nM and the GI50 [5] was 60.8 nM. For the same compound, the TGI [5] was 165 nM, the GI50 [6] was 40.8 nM and the TGI [6] was 201 nM. The GI50 [7] was 61.2 nM, the TGI [7] was 223 nM and the GI50 [8] was 56.9 nM. For the same compound, the TGI [8] was 170 nM, the GI50 [9] was 53.1 nM and the TGI [9] was 2920 nM. The GI50 [10] was 33 nM, the TGI [10] was 128 nM and the GI50 [11] was 64.1 nM. It also gave a TGI [11] of 388 nM, a GI50 [12] of 22.6 nM and a TGI [12] of 47.3 nM. It also gave a GI50 [13] of 89.9 nM, a TGI [13] of 243 nM and a GI50 [14] of 270 nM. It also gave a TGI [14] of 3930 nM, a GI50 [15] of 77.9 nM and a TGI [15] of 445 nM. The GI50 [16] was 44.9 nM, the TGI [16] was 14100 nM and the GI50 [17] was 89.7 nM. For the same compound, the TGI [17] was 592 nM, the GI50 [18] was greater than 57900 nM and the TGI [18] was greater than 100000 nM. It also gave a GI50 [19] of 76.2 nM, a TGI [19] of 265 nM and a GI50 [20] of 32.3 nM. The TGI [20] was 97.5 nM, the GI50 [21] was 166 nM and the TGI [21] was 464 nM. For the same compound, the GI50 [22] was 978 nM, the TGI [22] was 17500 nM and the GI50 [23] was 64.6 nM. The TGI [23] was 1260 nM, the GI50 [24] was 349 nM and the GI50 [25] was 1890 nM. For the same compound, the TGI [25] was greater than 100000 nM, the GI50 [26] was 45.8 nM and the TGI [26] was greater than 100000 nM. The GI50 [27] was 35.1 nM, the TGI [27] was 134 nM and the GI50 [28] was 58.1 nM. The TGI [28] was 248 nM, the GI50 [29] was 24.9 nM and the TGI [29] was 65.8 nM.
